Counter-ions that a name gives are not always drawn. Like-named read-outs stand apart in the source and are kept apart here.
Tests used:
human APJ = molecular target: T1, human APJ (Homo sapiens, UniProt P35414); assay: Calcium mobilization assay for APJ; format: cell-based
T1 sequence (P35414 1-380): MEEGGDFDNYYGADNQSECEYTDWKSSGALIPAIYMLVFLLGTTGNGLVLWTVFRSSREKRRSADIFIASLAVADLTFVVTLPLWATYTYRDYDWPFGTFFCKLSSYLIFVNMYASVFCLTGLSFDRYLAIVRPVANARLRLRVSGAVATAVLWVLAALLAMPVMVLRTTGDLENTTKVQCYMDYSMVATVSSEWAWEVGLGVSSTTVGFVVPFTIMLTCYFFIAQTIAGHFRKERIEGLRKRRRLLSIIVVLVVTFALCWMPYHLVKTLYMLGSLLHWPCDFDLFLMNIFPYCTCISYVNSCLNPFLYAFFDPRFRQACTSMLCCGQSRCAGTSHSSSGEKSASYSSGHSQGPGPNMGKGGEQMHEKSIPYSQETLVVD

human apelin receptor = molecular target: T2, human apelin receptor (Homo sapiens, UniProt P35414); assay: Radioligand displacement, [125I]-apelin-13, CHO-K1 cell membrane homogenates; format: binding
T2 sequence (P35414 1-380): T1 sequence (P35414 1-380)

NTR2 [1] = molecular target: T3, NTR2 (Rattus norvegicus, UniProt Q63384); assay: Calcium mobilization assay for NTR2; format: cell-based
T3 sequence (Q63384 1-416): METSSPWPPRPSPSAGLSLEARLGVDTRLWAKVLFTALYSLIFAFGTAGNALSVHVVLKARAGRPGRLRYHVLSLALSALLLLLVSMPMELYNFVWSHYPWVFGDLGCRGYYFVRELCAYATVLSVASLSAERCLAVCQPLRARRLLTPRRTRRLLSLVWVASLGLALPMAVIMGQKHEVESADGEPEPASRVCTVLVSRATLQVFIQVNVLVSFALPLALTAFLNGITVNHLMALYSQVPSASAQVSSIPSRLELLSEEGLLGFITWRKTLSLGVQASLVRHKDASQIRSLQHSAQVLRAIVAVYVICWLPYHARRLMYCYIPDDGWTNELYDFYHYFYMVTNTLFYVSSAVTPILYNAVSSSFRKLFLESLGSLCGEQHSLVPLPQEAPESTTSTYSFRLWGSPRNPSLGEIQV

NTR1 = NTR1 (Rattus norvegicus, UniProt P20789); assay: Calcium mobilization assay for NTR1; format: cell-based
NTR2 [2] = molecular target: T3, NTR2; details: read-out: NTR2 EC50 (off-target); cited from earlier work
NTR2 receptor = details: read-out: NTR2 Ki (off-target); cited from earlier work

Chain of NTR1 (P20789 whole entry): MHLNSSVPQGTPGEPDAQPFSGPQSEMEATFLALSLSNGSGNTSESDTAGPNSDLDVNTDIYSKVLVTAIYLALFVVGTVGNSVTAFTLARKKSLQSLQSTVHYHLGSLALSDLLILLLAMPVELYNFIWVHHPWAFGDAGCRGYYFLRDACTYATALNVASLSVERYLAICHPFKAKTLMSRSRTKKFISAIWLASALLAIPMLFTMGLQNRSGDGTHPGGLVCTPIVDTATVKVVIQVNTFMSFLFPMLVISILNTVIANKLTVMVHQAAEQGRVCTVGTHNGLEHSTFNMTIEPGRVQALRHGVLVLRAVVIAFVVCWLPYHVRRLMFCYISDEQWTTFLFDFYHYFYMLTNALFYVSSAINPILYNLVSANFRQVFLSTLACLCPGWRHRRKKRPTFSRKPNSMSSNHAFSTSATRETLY

SMILES	APJ agonist activity (human APJ; calcium mobilization)	also measured
CCCCC(=O)N(Cc1ccc(-c2ccccc2-c2nnn[nH]2)cc1)[C@H](C(=O)O)C(C)C [valsartan, reference compound]	none of these analogs possessed agonist activity	–
COc1cccc(OC)c1-c1cc(C(=O)N[C@H](C(N)=O)C2CCCCC2)nn1-c1ccc(F)cc1 [Compound 6, (S)-N-(2-Amino-1-cyclohexyl-2-oxoethyl)-5-(2,6-dimethoxyphenyl)-1-(4-fluorophenyl)-1H-pyrazole-3-carboxamide]	devoid of activity	–
COc1cccc(OC)c1-c1cc(C(=O)N[C@H](C(=O)NCc2ccccc2)C2CCCCC2)nn1-c1ccc(F)cc1 [Compound 8, (S)-N-(2-(Benzylamino)-1-cyclohexyl-2-oxoethyl)-5-(2,6-dimethoxyphenyl)-1-(4-fluorophenyl)-1H-pyrazole-3-carboxamide]	devoid of activity	–
Cc1cc(C(=O)N[C@H](C(=O)O)C2CCCCC2)nn1-c1ccc(F)cc1 [Compound 15, (S)-2-Cyclohexyl-2-(1-(4-fluorophenyl)-5-methyl-1H-pyrazole-3-carboxamido)acetic acid]	inactive	–
COc1cccc(O)c1-c1cc(C(=O)N[C@H](C(=O)O)C2CCCCC2)nn1-c1ccc(F)cc1 [Compound 13, 2-Cyclohexyl-2-(1-(4-fluorophenyl)-5-(2-hydroxy-6-methoxyphenyl)-1H-pyrazole-3-carboxamido)acetic acid]	loss of potency	–
COc1cccc(OC)c1-c1cc(C(=O)N[C@@H](CC(=O)O)C2CCCCC2)nn1-c1ccc(F)cc1 [Compound 21, (S)-3-Cyclohexyl-3-(5-(2,6-dimethoxyphenyl)-1-(4-fluorophenyl)-1H-pyrazole-3-carboxamido)propanoic acid]	–	EC50 (human APJ): 9900 ± 2600 nM; Ki (human apelin receptor): 1400 ± 200 nM; EC50 (NTR2 [1]): ~345 nM; NTR2 functional behaviour (NTR2 [1]): partial agonists at NTR2; Emax (NTR2 [1]; read-out: NTR2 Emax): 57%; NTR1 activity as agonist or antagonist (NTR1): Neither compound had any significant NTR1 activity
COc1cccc(OC)c1-c1cc(C(=O)N[C@@H](CCC(N)=O)C(=O)O)nn1-c1ccc(F)cc1 [Compound 16, (S)-5-Amino-2-(5-(2,6-dimethoxyphenyl)-1-(4-fluorophenyl)-1H-pyrazole-3-carboxamido)-5-oxopentanoic acid]	not tolerated	–
COc1cccc(OC)c1-c1cc(C(=O)N[C@@H](CCCCN)C(=O)O)nn1-c1ccc(F)cc1 [Compound 18, (S)-6-Amino-2-(5-(2,6-dimethoxyphenyl)-1-(4-fluorophenyl)-1H-pyrazole-3-carboxamido)hexanoic acid trifluoroacetate]	not tolerated	–
COc1cccc(OC)c1-c1cc(C(=O)N[C@H](C(=O)O)C2CCCCC2)nn1-c1ccc(F)cc1 [Compound 1]	–	EC50 (human APJ; read-out: functional EC50 at APJ, calcium mobilization): 21500 ± 5000 nM; EC50 (NTR2 [2]): 271 nM; displacement of 125I radiolabeled pyr-apelin-13 (human apelin receptor): 100%; mode of binding at APJ (human apelin receptor; radioligand displacement studies): competitive orthosteric ligand of APJ; Ki (NTR2 receptor): 622 nM
COc1cccc(OC)c1-c1cc(C(=O)N[C@H](C(=O)NO)C2CCCCC2)nn1-c1ccc(F)cc1 [Compound 9, (S)-N-(1-Cyclohexyl-2-(hydroxyamino)-2-oxoethyl)-5-(2,6-dimethoxyphenyl)-1-(4-fluorophenyl)-1H-pyrazole-3-carboxamide]	not tolerated	–
COc1cccc(OC)c1-c1cc(C(=O)NCC2CCCCC2)nn1-c1ccc(F)cc1 [Compound 5, N-(Cyclohexylmethyl)-5-(2,6-dimethoxyphenyl)-1-(4-fluorophenyl)-1H-pyrazole-3-carboxamide]	did not possess activity	–
O=C(N[C@H](C(=O)O)C1CCCCC1)c1cc(-c2c(O)cccc2O)n(-c2ccc(F)cc2)n1 [Compound 12, (S)-2-Cyclohexyl-2-(5-(2,6-dihydroxyphenyl)-1-(4-fluorophenyl)-1H-pyrazole-3-carboxamido)acetic acid]	complete loss of agonist potency	–
COc1cccc(OC)c1-c1cc(C(=O)N[C@H](C(=O)O)C2CCCCC2)n(-c2ccc(F)cc2)n1 [Compound 1a, (S)-2-Cyclohexyl-2-(3-(2,6-dimethoxyphenyl)-1-(4-fluorophenyl)-1H-pyrazole-5-carboxamido)acetic acid]	significantly reduce activity	–
COC(=O)[C@@H](NC(=O)c1cc(-c2c(OC)cccc2OC)n(-c2ccc(F)cc2)n1)C1CCCCC1 [Compound 4, (S)-Methyl 2-cyclohexyl-2-(5-(2,6-dimethoxyphenyl)-1-(4-fluorophenyl)-1H-pyrazole-3-carboxamido)acetate]	did not possess activity	–
COc1cccc(OC)c1-c1cc(C(=O)N[C@@H](C(=O)O)C2CCCCC2)nn1-c1ccc(F)cc1 [Compound 3, (R)-2-Cyclohexyl-2-(5-(2,6-dimethoxyphenyl)-1-(4-fluorophenyl)-1H-pyrazole-3-carboxamido)acetic acid]	significantly reduce activity	–
COc1cccc(OC)c1-c1cc(C(=O)N[C@H](C(=O)N(C)C)C2CCCCC2)nn1-c1ccc(F)cc1 [Compound 7, (S)-N-(1-Cyclohexyl-2-(dimethylamino)-2-oxoethyl)-5-(2,6-dimethoxyphenyl)-1-(4-fluorophenyl)-1H-pyrazole-3-carboxamide]	devoid of activity	–
COc1cccc(OC)c1-c1cc(C(=O)N[C@H](C(=O)NCC(=O)O)C2CCCCC2)nn1-c1ccc(F)cc1 [Compound 11, (S)-2-(2-Cyclohexyl-2-(5-(2,6-dimethoxyphenyl)-1-(4-fluorophenyl)-1H-pyrazole-3-carboxamido)acetamido)acetic acid]	inactive	–
COC(=O)CNC(=O)[C@@H](NC(=O)c1cc(-c2c(OC)cccc2OC)n(-c2ccc(F)cc2)n1)C1CCCCC1 [Compound 10, (S)-Methyl 2-(2-cyclohexyl-2-(5-(2,6-dimethoxyphenyl)-1-(4-fluorophenyl)-1H-pyrazole-3-carboxamido)acetamido)acetate]	inactive	–
COc1cccc(OC)c1-c1cc(C(=O)N[C@@H](CCCCNC(=O)OC(C)(C)C)C(=O)O)nn1-c1ccc(F)cc1 [Compound 17, (S)-6-((Tert-butoxycarbonyl)amino)-2-(5-(2,6-dimethoxyphenyl)-1-(4-fluorophenyl)-1H-pyrazole-3-carboxamido)hexanoic acid]	not tolerated	–
COc1cccc(OC)c1-c1cc(C(=O)N[C@@H](CCC2CCCCC2)CC(=O)O)nn1-c1ccc(F)cc1 [Compound 22, (S)-5-Cyclohexyl-3-(5-(2,6-dimethoxyphenyl)-1-(4-fluorophenyl)-1H-pyrazole-3-carboxamido)pentanoic acid]	full agonist	NTR2 functional behaviour (NTR2 [1]): partial agonists at NTR2; NTR1 activity as agonist or antagonist (NTR1): Neither compound had any significant NTR1 activity
CCCCc1nc(Cl)c(CO)n1Cc1ccc(-c2ccccc2-c2nn[nH]n2)cc1 [losartan, reference compound]	none of these analogs possessed agonist activity	–
COc1cccc(OC)c1-c1cc(C(=O)N[C@@H](CC(C)C)C(=O)O)nn1-c1ccc(F)cc1 [Compound 19, (S)-2-(5-(2,6-Dimethoxyphenyl)-1-(4-fluorophenyl)-1H-pyrazole-3-carboxamido)-4-methylpentanoic acid]	did not retain APJ potency	–

Reference: paper PMC4955518 (Bioorganic & medicinal chemistry, 2016)
